What all share (assay type): cell-based
The target of assay [1] is T1, human sphingosine-1-phosphate receptor 1 (S1P1) (Homo sapiens, UniProt P21453). Description: β-Arrestin2 recruitment assay (PathHunter), S1P1 CHO-K1 cells. The following applies: for Emax: efficacy normalized to maximum efficacy of fingolimod, read-out: hS1P1 B-arrestin2 SPAN; for EC50: β-arrestin2 recruitment, read-out: hS1P1 B-arrestin2 pEC50 (converted). An outline of the steps: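 Agonist-driven β-arrestin2 recruitment measured by β-galactosidase complementation after 60 min compound exposure at 37 °C and 1 h detection at room temperature. Cells: stable CHO-K1 line expressing tagged human S1P1 with EA-β-arrestin2, plated the night before. Data expressed relative to fingolimod.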
(Recruitment of arrestin is a read-out of receptor activation apart from second messengers.)
Target sequence in this assay (P21453 whole entry): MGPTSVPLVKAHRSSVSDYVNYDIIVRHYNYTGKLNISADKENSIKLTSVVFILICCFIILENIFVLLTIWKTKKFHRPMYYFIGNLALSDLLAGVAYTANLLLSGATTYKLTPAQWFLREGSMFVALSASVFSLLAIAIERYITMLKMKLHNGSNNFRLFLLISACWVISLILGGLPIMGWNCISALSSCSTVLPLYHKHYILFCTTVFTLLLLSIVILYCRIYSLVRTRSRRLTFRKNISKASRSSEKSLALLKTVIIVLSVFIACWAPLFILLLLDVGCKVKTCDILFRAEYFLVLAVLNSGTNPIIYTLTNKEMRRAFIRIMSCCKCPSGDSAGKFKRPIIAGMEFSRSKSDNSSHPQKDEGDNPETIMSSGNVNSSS
Target sequence in this assay (P32121 whole entry partner): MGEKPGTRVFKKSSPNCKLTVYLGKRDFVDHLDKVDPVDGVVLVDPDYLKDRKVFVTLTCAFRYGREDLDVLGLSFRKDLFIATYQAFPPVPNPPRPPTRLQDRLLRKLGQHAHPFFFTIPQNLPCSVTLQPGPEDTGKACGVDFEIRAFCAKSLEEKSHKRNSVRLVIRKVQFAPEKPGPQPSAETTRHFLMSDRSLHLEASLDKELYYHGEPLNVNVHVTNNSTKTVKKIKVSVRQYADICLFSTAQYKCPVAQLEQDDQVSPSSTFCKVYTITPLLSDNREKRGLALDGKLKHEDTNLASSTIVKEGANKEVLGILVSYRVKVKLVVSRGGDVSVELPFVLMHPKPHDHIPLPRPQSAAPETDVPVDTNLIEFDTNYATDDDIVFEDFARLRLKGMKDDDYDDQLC

Assay [2] addresses T1, human sphingosine-1-phosphate receptor 1 (S1P1). Kind of assay: Inhibition of cAMP production (HTRF cAMP HiRange), S1P1 CHO-K1 cells. The following applies: for Emax: CHO-K1, efficacy normalized to maximum efficacy of fingolimod, read-out: hS1P1 CAMP SPAN; for EC50: read-out: hS1P1 CAMP pEC50 (converted). An outline of the steps:
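Intracellular cAMP changes read by TR-FRET (HTRF HiRange, 1 h room temperature) after 30 min compound exposure at 37 °C. Cells: overnight-plated CHO-K1 stably expressing tagged human S1P1 with EA-β-arrestin2. Responses normalized to fingolimod.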
In general terms: Cyclic AMP is a second messenger, typically raised through Gs and lowered through Gi signalling.
Target sequence in this assay (P21453 whole entry): as the sequence (P21453 whole entry) above

The target in assay [3] is human sphingosine-1-phosphate receptor 3 (S1P3) (Homo sapiens, UniProt Q99500). Description: Selectivity: inhibition of cAMP production (HTRF), S1P3 CHO-K1 cells. The following applies: for Emax: CHO-K1, efficacy normalized to maximal efficacy of fimgolimod, read-out: hS1P3 cAMP SPAN; for EC50: inhibition of cAMP production, read-out: hS1P3 cAMP pEC50 (converted). How it is done:
(§1) Cell Culturing and Assay Plating Cell lines were cultured in AssayComplete™ Media 6 (DiscoverX Corporation, Cat #: 920018GF2) at 37° C. and 5% CO2 in a humidified CO2 and temperature-controlled incubator. To begin assay plating, cells were washed with Dulbecco's phosphate buffered saline (CellGro, Cat #: 21-031-CV) and lifted from the culturing flask by incubation (37° C., 5 min) with CellStripper (Cellgro, Cat #: 25-056-CI). […] Plated cells were incubated overnight at 37° C. and 5% CO2 in a humidified CO2 and temperature-controlled incubator. Detecting Inhibition of cAMP Production
S1P3 and S1P5 Agonist-promoted G-protein responses were determined by measuring changes in intracellular cAMP using the HTRF® cAMP HiRange kit (CisBio, Cat #: 62AM6PEJ) based on time-resolved fluorescence resonance energy transfer (TR-FRET) technology. […] Following a 30-minute room temperature incubation the components of the cAMP HiRange kit were added as per the manufacturer's instructions. After an hour incubation at room temperature, plates were analyzed by a BMG PheraStar microplate reader.
(§2) These values are normalized to fimgolimod, a known agonist of the sphingosine-1-phosphate 3 and 5 receptor or CYM5520, a known agonist of the sphingosine-1-phosphate 2 receptor. The tables also include potency values (pEC50) for modulating discrete receptor-mediated activities (inhibition of cAMP production or inositol monophosphate accumulation).

Assay [4] deals with human sphingosine-1-phosphate receptor 2 (S1P2) (Homo sapiens, UniProt O95136). Description: Selectivity: inositol monophosphate production (IP-one), S1P2 CHO-K1 cells. The following applies: for Emax: CHO-K1, efficacy normalized to maximal efficacy of CYM5520, read-out: hS1P2 IP-one SPAN; for EC50: inositol monophosphate accumulation, read-out: hS1P2 IP-one pEC50 (converted). How it is done: as §1
Sequence of human sphingosine-1-phosphate receptor 2 (S1P2) (O95136 whole entry): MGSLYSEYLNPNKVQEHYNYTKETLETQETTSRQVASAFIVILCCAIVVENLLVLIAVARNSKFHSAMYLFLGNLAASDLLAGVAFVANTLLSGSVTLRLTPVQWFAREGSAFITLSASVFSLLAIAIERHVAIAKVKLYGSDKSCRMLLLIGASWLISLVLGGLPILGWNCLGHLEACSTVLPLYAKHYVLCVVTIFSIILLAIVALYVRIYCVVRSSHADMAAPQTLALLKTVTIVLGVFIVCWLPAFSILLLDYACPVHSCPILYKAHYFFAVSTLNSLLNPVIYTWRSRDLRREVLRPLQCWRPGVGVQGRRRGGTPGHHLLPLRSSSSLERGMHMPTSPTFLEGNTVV
S1P2 Agonist-promoted G-protein responses were determined by measuring changes in intracellular inositol monophosphate using the IP-one TB kit (CisBio, Cat #: 62IPAPEJ) based on time-resolved fluorescence resonance energy transfer (TR-FRET) technology. AssayComplete™ Cell Plating 2 Reagent was removed and replaced with 1× IP-one stimulation buffer (as per manufacturer's instructions) along with test or control compounds at the desired concentrations.
Following a 60-minute incubation at 37° C. and 5% CO2 in a humidified CO2 and temperature-controlled incubator, the components of the IP-one TB kit were added as per the manufacturer's instructions. After an hour incubation at room temperature, plates were analyzed by a BMG PheraStar microplate reader.
as §2

The mark [5] stands for this setting: inhibition of cAMP production, S1P1.
Setting [6] is: CHO-K1, β-arrestin2 recruitment.
Where [7] appears, read: inhibition of cAMP production, potency.

SMILES strings stand for the structures.

Sequence of human sphingosine-1-phosphate receptor 3 (S1P3) (Q99500 whole entry): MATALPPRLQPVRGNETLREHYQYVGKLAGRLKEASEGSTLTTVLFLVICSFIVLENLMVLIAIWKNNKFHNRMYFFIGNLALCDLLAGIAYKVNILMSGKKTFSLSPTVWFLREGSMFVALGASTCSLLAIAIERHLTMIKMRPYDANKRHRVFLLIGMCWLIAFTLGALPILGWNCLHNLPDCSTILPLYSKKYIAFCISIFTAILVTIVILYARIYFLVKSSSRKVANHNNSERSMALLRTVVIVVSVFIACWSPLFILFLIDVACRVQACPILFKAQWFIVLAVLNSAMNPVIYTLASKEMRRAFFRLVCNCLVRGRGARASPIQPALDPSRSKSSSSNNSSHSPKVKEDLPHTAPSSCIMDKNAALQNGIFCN

Regarding `CCC1(CC)CC(=O)c2cc(-c3nc(-c4ccc5[nH]c(=O)oc5c4)no3)ccc2O1` [Compound 445, 6-(5-(2,2-diethyl-4-oxochroman-6-yl)-1,2,4-oxadiazol-3-yl)benzo[d]oxazol-2(3H)-one], the Emax in assay [1] (CHO-K1) is above 75%; in assay [2], above 75%; in assay [3], below 50%; in assay [4], below 50%. Besides, the EC50 in assay [1] (S1P1) was below 10 µM; in assay [2] (setting [5]), below 0.316 µM; in assay [3], above 10 µM; in assay [4] it was below 10 µM.

Turning to `CC(C)Nc1ccc(-c2nc(-c3ccc4oc(=O)[nH]c4c3)no2)cc1C#N` [Compound 422, 2-(isopropylamino)-5-(3-(2-oxo-2,3-dihydrobenzo[d]oxazol-5-yl)-1,2,4-oxadiazol-5-yl)benzonitrile], the Emax in assay [1] (CHO-K1) is above 75%; in assay [2], above 75%; in assay [3] it was below 50%; in assay [4], below 50%. For the same compound, the EC50 was below 10 µM in assay [1] (S1P1), below 0.316 µM in assay [2] (setting [5]), below 10 µM in assay [3] and below 10 µM in assay [4].

Take `CC(C)Nc1ccc(-c2nc(-c3ccc4c(c3)NC(=O)C4)no2)cc1C#N` [Compound 496, 2-(isopropylamino)-5-(3-(2-oxoindolin-6-yl)-1,2,4-oxadiazol-5-yl)benzonitrile]: the Emax is above 75% in assay [1] (CHO-K1), above 75% in assay [2], below 50% in assay [3] and below 50% in assay [4]. In addition, the EC50 in assay [1] (S1P1) is below 10 µM; in assay [2] (setting [5]), below 0.316 µM; in assay [3], above 10 µM; in assay [4] it was above 10 µM.

As to `CCCC1CC(=O)c2ccc(-c3nc(-c4cccnc4)no3)cc2O1` (stereo not shown) [Compound 630, 2-propyl-7-[3-(pyridin-3-yl)-1,2,4-oxadiazol-5-yl]-3,4-dihydro-2H-1-benzopyran-4-one], the Emax in assay [1] (CHO-K1) and in assay [2] was below 75% each time. Further, the values for the EC50 in assay [1] (S1P1) and in assay [2] (setting [5]) were above 10 µM and above 0.316 µM, respectively.

As for `COc1ccc(-c2nc(-c3ccc4c(ccn4C(C)C)c3)no2)cc1` [Compound 393, 3-(1-isopropyl-1H-indol-5-yl)-5-(4-methoxyphenyl)-1,2,4-oxadiazole], the Emax in assay [1] (CHO-K1) and in assay [2] was below 75% throughout. Besides, the EC50 in assay [1] (S1P1) was above 10 µM; in assay [2] (setting [5]) it was above 0.316 µM.

For `Cc1ccccc1C(C)c1noc(-c2ccc3c(c2)nnn3CC(C)C)n1` (stereo not shown) [Compound 154, 5-{3-[1-(2-methyl-phenyl)ethyl]-1,2,4-oxadiazol-5-yl}-1-(2-methylpropyl)-1H-1,2,3-benzotriazole], the Emax in assay [1] (setting [6]) and in assay [2] (inhibition of cAMP production) was below 75% throughout. The EC50 in assay [1] (potency) was above 10 µM; in assay [2] (setting [7]), above 0.316 µM.

Regarding `CC(C)Nc1ccc(-c2nnc(-c3cccc4[nH]cnc34)o2)cc1C#N` [Compound 585, 5-[5-(1H-1,3-benzo-diazol-4-yl)-1,3,4-oxadiazol-2-yl]-2-[(propan-2-yl)amino]benzonitrile], the Emax in assay [1] (CHO-K1) and in assay [2] was above 75% each time. In addition, the EC50 is below 10 µM in assay [1] (S1P1) and below 0.316 µM in assay [2] (setting [5]).

Turning to `CC(C)Nc1ccc(-c2nnc(-c3ccc4oc(=O)[nH]c4c3)o2)cc1C#N` [Compound 637, 5-[5-(2-oxo-2,3-dihydro-1,3-benzoxazol-5-yl)-1,3,4-oxadiazol-2-yl]-2-[(propan-2-yl)amino]benzonitrile], the Emax in assay [1] (CHO-K1) and in assay [2] was above 75% in each case. The results for the EC50 in assay [1] (S1P1) and in assay [2] (setting [5]) were below 10 µM and below 0.316 µM, respectively.

As to `CC(C)c1ccc(-c2nc(-c3ccc4c(c3)nnn4C(C)C)no2)cn1` [Compound 25, 3-(1-isopropyl-1H-benzo[d][1,2,3]triazol-5-yl)-5-(6-isopropyl-pyridin-3-yl)-1,2,4-oxadiazole], the Emax in assay [1] (setting [6]) and in assay [2] (inhibition of cAMP production) was below 75% in each case. The EC50 was above 10 µM in assay [1] (potency) and above 0.316 µM in assay [2] (setting [7]).

On to `CCC1(CC)CC(=O)c2cc(-c3nc(-c4ccnc(C(N)=O)c4)no3)ccc2O1` [Compound 555, 4-(5-(2,2-diethyl-4-oxochroman-6-yl)-1,2,4-oxadiazol-3-yl)picolinamide], for which the Emax in assay [1] (CHO-K1) and in assay [2] was below 75% throughout. Further, the EC50 is below 10 µM in assay [1] (S1P1) and below 0.316 µM in assay [2] (setting [5]).

Turning to `N#Cc1cc(-c2nnc(-c3cccc4[nH]cnc34)o2)ccc1NCC(F)F` [Compound 586, 5-[5-(1H-1,3-benzodiazol-4-yl)-1,3,4-oxadiazol-2-yl]-2-[(2,2-difluoro-ethyl)amino]benzonitrile], the Emax in assay [1] (CHO-K1) and in assay [2] was above 75% throughout. In addition, the values for the EC50 in assay [1] (S1P1) and in assay [2] (setting [5]) were below 10 µM and below 0.316 µM, respectively.

Consider `CCC1(CC)CC(=O)c2cc(-c3nc(-c4sccc4OC)no3)ccc2O1` [Compound 604, 2,2-diethyl-6-(3-(3-methoxythiophen-2-yl)-1,2,4-oxadiazol-5-yl)chroman-4-one], for which the Emax in assay [1] (CHO-K1) and in assay [2] was above 75% in each case. Further, the EC50 is below 10 µM in assay [1] (S1P1) and below 0.316 µM in assay [2] (setting [5]).

Regarding `FC(F)(F)c1cccc(-c2noc(-c3ccc4c(c3)nnn4C3CCCC3)n2)c1` [Compound 118, 1-cyclopentyl-5-{3-[3-(trifluoromethyl)phenyl]-1,2,4-oxadiazol-5-yl}-1H-1,2,3-benzotriazole], the Emax in assay [1] (setting [6]) and in assay [2] (inhibition of cAMP production) was below 75% each time. The EC50 in assay [2] (setting [7]) is above 0.316 µM.

Take `Cc1cccc(-c2noc(-c3ccc4c(c3)nnn4C3CCCCC3)n2)c1` [Compound 11, 1-cyclohexyl-5-[3-(3-methylphenyl)-1,2,4-oxadiazol-5-yl]-1H-1,2,3-benzotriazole]: the Emax in assay [1] (setting [6]) and in assay [2] (inhibition of cAMP production) was below 75% each time. The EC50 was above 10 µM in assay [1] (potency) and above 0.316 µM in assay [2] (setting [7]).

With `CCC1(CC)CC(=O)c2cc(-c3nc(-c4ccncc4F)no3)ccc2O1` [Compound 226, 2,2-diethyl-6-(3-(3-fluoropyridin-4-yl)-1,2,4-oxadiazol-5-yl)chroman-4-one], the Emax in assay [1] (setting [6]) and in assay [2] (inhibition of cAMP production) was above 75% in each case. Moreover, the EC50 is above 10 µM in assay [1] (potency) and above 0.316 µM in assay [2] (setting [7]).

For `COc1ccc2oc(-c3ccc4c(c3)nnn4C(C)C)nc2c1` [Compound 425, 2-(1-isopropyl-1H-benzo[d][1,2,3]triazol-5-yl)-5-methoxy-benzo[d]oxazole], the Emax in assay [1] (CHO-K1) and in assay [2] was above 75% in each case. Also, the EC50 in assay [1] (S1P1) is below 10 µM; in assay [2] (setting [5]) it was below 0.316 µM.

In the case of `Cc1ccncc1-c1noc(-c2ccc3ccsc3n2)n1` [Compound 376, 4-methyl-3-(5-{thieno[2,3-b]pyridin-6-yl}-1,2,4-oxadiazol-3-yl)pyridine], the Emax in assay [1] (CHO-K1) and in assay [2] was below 75% throughout. Also, the EC50 is above 10 µM in assay [1] (S1P1) and above 0.316 µM in assay [2] (setting [5]).

The values above are taken from patent US20230114241A1, “METHODS OF TREATING EPILEPSY USING THE SAME” (Trevena, Inc., priority 2019, published 2023).
